A value given as a limit tells only on which side of the number the result lay.

One test relates to CD44. The experiment in a line: Cell surface CD44 expression by FACS. The format is cell-based. The conditions noted are these: sub-lethal docetaxel (25 nM), MDA-MB-231. As to the method:
DU145 and DU145-TxR were provided by A. Mizokami^63 and cultured in DMEM containing 10% FBS, resistant line included 100 nM paclitaxel in the culture media. During treatments with chemotherapeutics, cells were grown to semi-confluence and treated with indicated concentrations of chemotherapy in serum-containing medium for indicated time points. When small molecule inhibitors were included in treatments, they were added simultaneously with chemotherapy. […] Scrambled siRNA was used as a control. For chemotherapy treatment experiments: Cancer cells were plated at a density of 0.5-1×10^5 cells/ml and allowed to adhere for 24-48 hr. […] Following washes with PBS, adherent cells were trypsinized and re-plated at a density of 1.5-2×10^5 cells/ml and cultured in serum-containing medium. […] A population of drug naïve parent cells were always cultured alongside DTC and fresh media was added at every interval that experimental population (DTC) received fresh media.
Cells were cultured as indicated, removed from culture dishes with accutase stem-pro dissociation reagent (Invitrogen, Carlsbad Calif.) and fixed with 4% paraformaldehyde in PBS for 30 min at RT, washed twice with PBS and blocked in 10% goat serum (v/v). Whenever necessary, cells were permeabilized with 0.05% saponin in PBS. Cells were incubated with CD44-APC (BD biosciences, San Jose, Calif.) overnight at 4 C and analyzed by FACS (C6 Accuri cyomteters Inc Ann Arbor, Mich.), data analysis using FlowJo software (Tree Star Inc., Ashland Oreg.) and Accuri cFlow plus software to obtain and confirm mean fluorescent intensity (GNU.org).

The subject of a further test is CD44v6 and EGFR. The experiment in a line: CD44/CD44v6-EGFR immunocomplex by immunoprecipitation and western blot. It counts as cell-based. The following applies: MDA-MB-231 cells; docetaxel sublethal dose (10 nM), with or without erlotinib.
Another test deals with residual tumor tissue. The experiment in a line: Total intratumoral GSH in residual tumor of syngeneic mammary carcinoma. It counts as in vivo, mice. The conditions noted are these: DTX 10 mg/kg i.v., vs vehicle control cohorts. The procedure:
G) Total intratumoral GSH obtained from residual tumor tissue homogenate of a syngeneic mammary carcinoma treated with vehicle or DTX (10 mg/kg i.v.). N=4 groups, ***p<0.001.
In vitro detection of glucose uptake was performed using 2-(N-7-Nitrobenz-2-oxa-1,3-diazol-4-yl)Amino)-2-Deoxyglucose (2-NBDG) (Invitrogen, Carlsbad Calif.), dissolved in DMSO to 50 mM. Cells were pre-treated with kinase inhibitors or vehicle for 3 hours in glucose- and phenol red-free media before addition of 50 μM 2-NBDG and subsequently read by FACS ex/em 488/535 nm. ROS was determined by pre-loading cells with CM-DCFDA (1 μM), washed 2 times with PBS and subsequently treated with H2O2 or vehicle; when kinase inhibitors were included in treatment, cells were first incubated with inhibitor for 3 hours prior to CM-DCFDA loading. Fluorescence was then determined by FACS ex/em 488/535 nm. For the following assays, cells were trypsinized and counted by Nexcelom cell counter (Lawrence, Mass.) prior to being subjected to analysis in order to achieve a quantitative value per cell: Reduced glutathione was determined using a colorimetric glutathione recycling system by DTNB following manufacturer protocol (Biovision, Milpitas Calif.). […] Protein synthesis was measured by two means 1. […] Fluorescence was detected by FACS as described below. […] GFP protein translation was determined by fluorescent microscopy. […]

Description for CD44v6 and EGFR: Laemli sample buffer was prepared as a 5× solution containing □-mercaptoethanol as a reducing agent. Immunoprecipitaion was performed using both classic and direct IP kits purchased from Pierce following manufacturer protocols (Thermo Fisher inc. Rockford, Ill.). Briefly, cell lysates were prepared using IP/Lysis Buffer (Thermo Fisher inc. Rockford, Ill.) in the presence of 2× HALT protease/phosphatase inhibitor cocktail (Thermo Fisher inc. Rockford, Ill.). […] Direct immunoprecipitation was performed following manufacturer protocol. […] Protein samples were resolved by SDS-PAGE and transferred to PVDF membranes prior to incubation at 4 C with indicated primary antibodies; NHE-1, GLUT-1 and cytoplasmic domain-targeting EGFR were purchased from Santa Cruz Biotech (Santa Cruz, Calif.). p70S6K and pp70S6K, mTOR and pMTOR, pERM and ERM, Ezrin and pEzrin, pAKT and AKT, pPRAS40 and PRAS40, EGFR and pEGFR antibodies cleaved caspase-3 and β-Actin were purchased from cell signaling technology (Cambridge, Mass.). EGFR and CD44v6 neutralizing antibodies were purchased from R&D (Minneapolis, Minn.). […] Optical densities of western blots were measured using ImageJ open source software (National Institutes of Health) and validated using Adobe CS5.

Regarding `CC(=O)O[C@@]12CO[C@@H]1C[C@H](O)[C@@]1(C)C(=O)[C@H](O)C3=C(C)[C@@H](OC(=O)[C@H](O)[C@@H](NC(=O)OC(C)(C)C)c4ccccc4)C[C@@](O)([C@@H](OC(=O)c4ccccc4)[C@H]21)C3(C)C` [docetaxel], in the test on CD44, the “time to induction of cell surface CD44” value was ≤ 4 h. Also, the “immunocomplex between CD44v6 and EGFR” value with CD44v6 and EGFR is “induced”. Also, in the test on residual tumor tissue, the “whole cell GSH in residual tumor” value was “significant global increase”.

For the origin of these results see US10300070B2, “Metabolically-activated drug conjugates to overcome resistance in cancer therapy” (The Brigham and Women's Hospital, Inc., priority 2014, dated 2019).
